# From US10280179B2, “Spiroquinoxaline derivatives as inhibitors of non-apoptotic regulated cell-death” (Helmholtz Zentrum Munchen—Deutches Forschungszentrum Fur …, priority 2013, dated 2019)
# Where two headings read alike, the source gives them in different places.
# Experiments:
# Format in all cases: cell-based
# [1] = system: human neuroblastoma cell line SH-SY5Y; assay: Inhibition of BSO-induced non-apoptotic cell death (Example B.1); conditions: SH-SY5Y cells, 72 hours
# Source text: Inhibition of BSO-Induced Non-Apoptotic Cell Death by Compounds Disclosed Herein
# L-Buthionine sulfoximine (BSO) is a well-known glutathione (GSH) depletory, which inhibits gamma-glutamyl-cysteine-synthetase, the enzyme catalyzing the rate-limiting step in GSH biosynthesis. The human neuroblastoma cell line SH-SY5Y is sensitive to BSO-induced intracellular glutathione depletion, which causes high levels of reactive oxygen species (ROS) and cellular stress mimicking cellular conditions following ischemia (cf., e.g., Yamada et al., Neurochem. Int. 59:1003-9 (2011)).
# Compounds disclosed herein were evaluated for their ability to promote cell survival upon administration of a lethal dose of BSO to cell-culture medium. Briefly, SH-SY5Y cells (ATCC® CRL-2266™) were propagated in DMEM supplemented with 10% FBS/1% Penicillin-Streptomycin, and then seeded onto 96-well plates at a concentration of 750 cells/well in 100 μL of media, to which BSO (Sigma Aldrich) was added (to a final concentration of 50 μM) together with increasing concentrations of the compound to be tested, and the plates incubated at 37° C./5% CO2 for 72 hours. Compound dilutions (0.5 pM to 100 μM) were prepared from 10 mM stocks dissolved in DMSO and diluted in media. Cells treated with BSO alone were used as negative control and alpha-Tocopherol (Sigma Aldrich) was used as positive control. Compound concentrations were tested in triplicate. After incubation, cell survival was detected using the live/dead cell assay AquaBluer™ (MultiTarget Pharmaceuticals) and quantified using a fluorescence plate reader (excitation filter: 530-560 nm/emission filter: 590 nm) (SpectraMax M4; Molecular Devices). Fluorescence data so obtained was normalised to the percentage of surviving cells and IC50 values calculated using the GraphPad Prism (GraphPad Software, Inc) software package.
# [2] = system: mouse hippocampal cell line (Ht22); assay: Inhibition of glutamate-induced non-apoptotic cell death (Example B.2); conditions: HT-22, Ht22 cells
# Source text: Inhibition of Glutamate-Induced Non-Apoptotic Cell Death by Compounds of the Present Invention
# Glutamate toxicity is conferred on cells from the mouse hippocampal cell line (Ht22) by inhibition of the cysteine/glutamate antiporter, System xc-, leading to impaired cysteine uptake and subsequent GSH depletion. This model is frequently used for mimicking glutathione depletion following oxidative stress in stroke, brain trauma and other neurodegenerative diseases and cellular conditions following ischemia (for example: van Leyen et al, J. Neurochem. 92:824-30 (2005)).
# Compounds disclosed herein were evaluated for their ability to promote cell survival upon administration of a lethal dose of glutamate (GLU) to the cell-culture medium.
# Briefly, Ht22 cells (ATCC) were propagated DMEM supplemented with 10% FBS/1% Penicillin-Streptomycin, and then seeded onto 96-well plates at a concentration of 2,000 cells/well in 100 μL of MEDIA, simultaneously with glutamate (Sigma Aldrich) to a final concentration of 5 mM, together with increasing concentrations of the compound to be tested (0.5 pM to 100 μM), and the plates incubated at 37° C./5% CO2 for 72 hours. Compound dilutions were prepared from 10 mM stocks dissolved in DMSO and diluted in media. Cells treated with glutamate alone were used as negative control and alpha-tocopherol (Sigma Aldrich) was used as positive control. Compound concentrations were tested in triplicate. After incubation, cell survival was detected and quantified as described in Example B.1.
# [3] = system: Pfa1 cells; assay: Inhibition of non-apoptotic cell death after tamoxifen-induced GPx4 knockout in a recombinant cell line (Example B.4); conditions: Mus musculus, read-out: Pfa1/TAM IC50
# Source text: Inhibition of Non-Apoptotic Cell-Death by Compounds Disclosed Herein Using a Recombinant Cell Line
# To combat high intracellular ROS levels, mammalian cells have evolved an intricate network of ROS scavenging in cells, in which the thioredoxin and glutathione (GSH) dependent systems prevail. […] Knockout of GPx4 in neurons causes massive neurodegeneration in cortical, cerebellar and hippocampal neurons underscoring the high relevance of ROS-induced cell death signaling in the brain. Briefly, immortalised fibroblasts from these mice were made to contain tamoxifen-inducible CreERT2, which catalyzes the functional ablation of both copies of GPx4 and resulting in a complete knockout of GPx4, a massive ROS burst, and cell death in cell culture. These cells (Pfa1 cells) were used to characterize compounds of the present invention, whereby tamoxifen (TAM) was given on day 0 along with the compound under test, and 72 hours later cell survival was evaluated using AlamarBlue.
# [4] = Cellular toxicity, same assay as Example B.4 without TAM (Example B.5); conditions: mouse; Pfa1 cells without TAM; read-out: TC50 (the source's name)
# Source text: Cellular Toxicity of Compounds of the Invention
# An estimate of the toxicity for compounds of the invention was obtained by using the same assay as described in Example B.4, but without the addition of TAM. […] Such TC50 values obtained for certain compounds disclosed herein, together with an approximate therapeutic window (estimated by dividing each TC50 by the corresponding IC50 determined from example B.4) are shown in Table 3.
# [5] = 50 μM BSO, read-out: SH-SY5Y/BSO IC50
# [6] = glutamate-induced cell death, read-out: Ht22/GLU
structure (smiles),measurement,setting,value
Clc1cccc(CNC2=Nc3cc4c(cc3NC23CCCCC3)OCCO4)c1 [C-227],IC50,[1]; [5],< 500 nM
same,IC50,[2]; [6],< 1000 nM
same,IC50,[3],< 50 nM
same,CC50,[4],20 to 50 µM
Clc1ccc(CNC2=Nc3ccccc3NC23CCCCC3)cc1Cl [C-228],IC50,[1]; [5],< 50 nM
same,IC50,[2]; [6],< 500 nM
same,IC50,[3],< 50 nM
same,CC50,[4],20 to 50 µM
CC(=O)NC1CCC2(CC1)Nc1ccccc1N=C2NCc1ccccc1 (stereo not shown) [C-249],IC50,[1]; [5],< 1000 nM
same,IC50,[2]; [6],< 5000 nM
same,IC50,[3],< 5000 nM
same,CC50,[4],50 to 100 µM
CC1CCC2(CC1)Nc1ccccc1N=C2NCc1ccccc1 (stereo not shown) [C-252],IC50,[1]; [5],< 200 nM
same,IC50,[2]; [6],< 1000 nM
same,IC50,[3],< 1000 nM
same,CC50,[4],10 to 20 µM
CC1(C)CCC2(CC1)Nc1ccccc1N=C2NCc1ccccc1 [C-253],IC50,[1]; [5],< 100 nM
same,IC50,[2]; [6],< 1000 nM
same,IC50,[3],< 1000 nM
same,CC50,[4],10 to 20 µM
FC(F)(F)c1cccc2c1N=C(NCc1ccccc1)C1(CCCCC1)N2 [C-254],IC50,[1]; [5],< 50 nM
same,IC50,[2]; [6],< 500 nM
same,IC50,[3],< 500 nM
same,CC50,[4],5 to 10 µM
Cc1cc2c(cc1C)NC1(CCCCCC1)C(NCc1cccc(Cl)c1)=N2 [C-255],IC50,[1]; [5],< 50 nM
same,IC50,[2]; [6],< 200 nM
same,IC50,[3],< 200 nM
same,CC50,[4],5 to 10 µM
FC1(F)Oc2cc3c(cc2O1)NC1(CCCCC1)C(NCc1ccccc1)=N3 [C-256],IC50,[1]; [5],< 50 nM
same,IC50,[2]; [6],< 200 nM
same,IC50,[3],< 100 nM
same,CC50,[4],20 to 50 µM
NC1CCC2(CC1)Nc1ccccc1N=C2NCc1ccccc1 (stereo not shown) [C-257],IC50,[1]; [5],< 100 nM
same,IC50,[2]; [6],< 500 nM
same,IC50,[3],< 200 nM
same,CC50,[4],2 to 5 µM
Clc1ccc2c(c1)N=C(NCc1ccccc1)C1(CCCCC1)N2 [C-258],IC50,[1]; [5],< 50 nM
same,IC50,[2]; [6],< 500 nM
same,IC50,[3],< 200 nM
same,CC50,[4],10 to 20 µM
FC(F)(F)c1ccc2c(c1)N=C(NCc1ccccc1)C1(CCCCC1)N2 [C-259],IC50,[1]; [5],< 100 nM
same,IC50,[2]; [6],< 500 nM
same,IC50,[3],< 500 nM
same,CC50,[4],5 to 10 µM
FC(F)(F)c1cccc(CNC2=Nc3cc(Cl)c(Cl)cc3NC23CCCCCC3)c1 [C-260],IC50,[1]; [5],< 50 nM
same,IC50,[2]; [6],< 500 nM
same,IC50,[3],< 200 nM
same,CC50,[4],5 to 10 µM
FC(F)(F)c1cccc(CNC2=Nc3ccccc3NC23CCCCCC3)c1 [C-261],IC50,[1]; [5],< 50 nM
same,IC50,[2]; [6],< 500 nM
same,IC50,[3],< 500 nM
same,CC50,[4],10 to 20 µM
Cc1cc(C)cc(CNC2=Nc3cc(Cl)c(Cl)cc3NC23CCCCCC3)c1 [C-262],IC50,[1]; [5],< 100 nM
same,IC50,[2]; [6],< 500 nM
same,IC50,[3],< 500 nM
same,CC50,[4],10 to 20 µM
Cc1cccc2c1NC1(CCCCC1)C(NCc1ccccc1)=N2 [C-263],IC50,[1]; [5],< 50 nM
same,IC50,[2]; [6],< 500 nM
same,IC50,[3],< 500 nM
same,CC50,[4],10 to 20 µM
FC(F)(F)c1cccc(CNC2=Nc3cc(Cl)c(Cl)cc3NC23CCCCC3)c1 [C-264],IC50,[1]; [5],< 50 nM
same,IC50,[2]; [6],< 500 nM
same,IC50,[3],< 500 nM
same,CC50,[4],10 to 20 µM
Fc1ccc(CNC2=Nc3cc(Cl)c(Cl)cc3NC23CCCCC3)c(F)c1 [C-265],IC50,[1]; [5],< 50 nM
same,IC50,[2]; [6],< 500 nM
same,IC50,[3],< 500 nM
same,CC50,[4],10 to 20 µM
Fc1cccc(F)c1CNC1=Nc2ccccc2NC12CCCCCC2 [C-266],IC50,[1]; [5],< 100 nM
same,IC50,[2]; [6],< 500 nM
same,IC50,[3],< 500 nM
same,CC50,[4],10 to 20 µM
Cc1cccc(CNC2=Nc3cc(Cl)c(Cl)cc3NC23CCCCCC3)c1 [C-267],IC50,[1]; [5],< 100 nM
same,IC50,[2]; [6],< 500 nM
same,IC50,[3],< 200 nM
same,CC50,[4],10 to 20 µM
Clc1ccc(CNC2=Nc3ccccc3NC23CCNCC3)cc1 [N-3],IC50,[1]; [5],< 50 nM
same,IC50,[2]; [6],< 50 nM
same,IC50,[3],< 10 nM
same,CC50,[4],5 to 10 µM
Cc1ccccc1CNC1=Nc2ccccc2NC12CCNCC2 [N-10],IC50,[1]; [5],< 20 nM
same,IC50,"[1]; BSO 50 μM, cell survival (AquaBluer), read-out: SH-SY5Y/BSO (Example B.1) IC50",~5 nM
same,IC50,"[2]; glutamate 5 mM, 72 hours, cell survival, read-out: Ht22/GLU (Example B.2) IC50",10 to 50 nM
same,IC50,[2]; [6],< 50 nM
same,IC50,[3],< 100 nM
same,CC50,[4],5 to 10 µM
FC(F)(F)c1cccc(CNC2=Nc3ccccc3NC23CCNCC3)c1 [N-23],IC50,[1]; [5],< 20 nM
same,IC50,[2]; [6],< 50 nM
same,IC50,[3],< 50 nM
same,CC50,[4],20 to 50 µM
Fc1cc(Cl)ccc1CNC1=Nc2ccccc2NC12CCNCC2 [N-61],IC50,[1]; [5],< 50 nM
same,IC50,[2]; [6],< 50 nM
same,IC50,[3],< 50 nM
same,CC50,[4],20 to 50 µM
